# Measured values reported in US9040557B2, “Composition containing cinchonine as an active ingredient for preventing and treating obesity, dyslipidemia, fatty liver, or insulin resistance syndrome” (YONSEI UNIVERSITY TECHNOLOGY HOLDINGS, INC., priority 2010, dated 2015).
# Marks after values point to notes of the source that are not given here.
# What was measured:
# [1] = test system: C57BL/6J mice; assay: Biochemical analysis of plasma after 10 weeks of test diet; format: in vivo
# Description: The obesity-inducing control diet used in the test was high-fat diet (HFD: 40% fat calorie, 17 g lard+3% corn oil/100 g diet). […] The normal diet (ND) was prepared according to the AIN-76 rodent diet composition (American Institute of Nutrition, Report of the American Institute of Nutrition ad hoc committee on standards for nutritional studies. J. Nutr., 107: 1340-1348, (1977)) (FIG. 1). (+)-Cinchonine was purchased from Sigma-Aldrich. 5-week-old male C57BL/6J mice (Orient, Korea) were accustomed to the laboratory environment for 1 week while feeding solid feed. Then, they were randomly divided into a high-fat diet group and a test group according to randomized block design and bred for a total of 10 weeks. The diet was given between 10 and 11 A.M. every day together with water. Food intake was measured every day and body weight was measured once a week. In order to avoid transient body weight increase after feed intake, body weight was measured 2 hr after removing the feed. […] Blood taken from the abdominal aorta was centrifuged at 1000×g for 15 minutes for the separation of plasma. […] Total cholesterol, triglyceride, free fatty acid and glucose levels in the plasma were measured twice for each using a commercially available kit (Bio Clinical System). The level of LDL+VLDL in plasma was calculated by subtracting HDL level from the total cholesterol level. The activities of ALT (alanine aminotransferase) and AST (aspartate aminotransferase) used as liver function indicator were measured using a commercially available kit (Bio Clinical System, Korea).
# [2] = test system: TNF-α; assay: RT-PCR of visceral fat tissues: TNF-α; format: in vivo, mice; conditions: FIG. 5
# Description: (§1) After adding 1 mL of Trizol agent (Invitrogen, USA) per 0.1 g of epididymal fat tissues, the mixture was homogenized and centrifuged at 12,000×g for 10 min at 4° C. The supernatant was transferred to a new tube and 200 μl of chloroform was added to the tube, followed by vortexing. The same procedure was repeated twice and then the supernatant was transferred to a new tube, followed by addition of isopropanol and the supernatant at 1:1 ratio. The mixture was vigorously shaken 10 times and then incubated for 10 min at room temperature, followed by centrifugation at 12,000×g for 10 min at 4° C. to remove the supernatant. After adding 1 mL of 70% ethanol to the remaining pellet, it was centrifuged at 7,500×g for 5 min at 4° C. After removing the ethanol, the RNA pellet contained in the tube was dried for 5 min at 4° C. and dissolved in nuclease-free water. The RNA concentration of sample was measured at a wavelength of 260 nm and 280 nm using a UV/VIS spectrophotometer (Beckman coulter, DU730) and the integrity of RNA sample was verified by agarose gel electrophoresis. The RNA sample obtained from the epididymal fat tissues was transcribed using oligo dT primer and SuperScript reverse transcriptase (GIBCO BRL, Gaithersburg, Md., USA) to synthesize cDNA. The PCR amplification was performed using the cDNA as templates and primers complementary to cDNA [NT] flanking sequence. […]
# [3] = test system: C/EBPα; assay: RT-PCR of epididymal fat tissues: C/EBPα; format: in vivo, mice; conditions: CSID vs HFD, FIG. 4
# [4] = test system: adrenorceptor and Ca^2+ channels; conditions: cited from earlier work
# [5] = test system: Plasmodium falciparum; conditions: cited from earlier work
# [6] = test system: C57BL/6J mice; assay: Body and visceral fat-pad weights after 10 weeks of test diet; format: in vivo; conditions: 0.05% cinchonine in high-fat diet
# Description: (§2) The obesity-inducing control diet used in the test was high-fat diet (HFD: 40% fat calorie, 17 g lard+3% corn oil/100 g diet). […] The normal diet (ND) was prepared according to the AIN-76 rodent diet composition (American Institute of Nutrition, Report of the American Institute of Nutrition ad hoc committee on standards for nutritional studies. J. Nutr., 107: 1340-1348, (1977)) (FIG. 1). (+)-Cinchonine was purchased from Sigma-Aldrich. 5-week-old male C57BL/6J mice (Orient, Korea) were accustomed to the laboratory environment for 1 week while feeding solid feed. Then, they were randomly divided into a high-fat diet group and a test group according to randomized block design and bred for a total of 10 weeks. The diet was given between 10 and 11 A.M. every day together with water. Food intake was measured every day and body weight was measured once a week. In order to avoid transient body weight increase after feed intake, body weight was measured 2 hr after removing the feed. […] Blood taken from the abdominal aorta was centrifuged at 1000×g for 15 minutes for the separation of plasma.
# [7] = test system: aP2; assay: RT-PCR of epididymal fat tissues: aP2; format: in vivo, mice; conditions: CSID vs HFD, FIG. 4
# Description: as §1
# [8] = test system: 3T3-L1 adipocyte precursor cells; assay: Inhibition of adipocyte differentiation, Oil-red O staining; format: cell-based, mouse; conditions: 0.1, 1, 10, 50 and 100 μM, fourteen-day culture; for differentiation of 3T3-L1 adipocyte precursor cells: FIG. 1a; for content of intracellular fats stained with Oil-red O (O.D. at 600 nm): FIG. 1b
# [9] = test system: PPARγ2; assay: RT-PCR of epididymal fat tissues: PPARγ2; format: in vivo, mice; conditions: CSID vs HFD, FIG. 4
# Description: as §1
# [10] = test system: UCP3; assay: RT-PCR of visceral fat tissues: UCP3; format: in vivo, mice; conditions: FIG. 6
# Description: as §1
# [11] = target: P-glycoprotein (Homo sapiens, UniProt P08183); conditions: cited from earlier work
# Chain of P-glycoprotein (P08183 whole entry): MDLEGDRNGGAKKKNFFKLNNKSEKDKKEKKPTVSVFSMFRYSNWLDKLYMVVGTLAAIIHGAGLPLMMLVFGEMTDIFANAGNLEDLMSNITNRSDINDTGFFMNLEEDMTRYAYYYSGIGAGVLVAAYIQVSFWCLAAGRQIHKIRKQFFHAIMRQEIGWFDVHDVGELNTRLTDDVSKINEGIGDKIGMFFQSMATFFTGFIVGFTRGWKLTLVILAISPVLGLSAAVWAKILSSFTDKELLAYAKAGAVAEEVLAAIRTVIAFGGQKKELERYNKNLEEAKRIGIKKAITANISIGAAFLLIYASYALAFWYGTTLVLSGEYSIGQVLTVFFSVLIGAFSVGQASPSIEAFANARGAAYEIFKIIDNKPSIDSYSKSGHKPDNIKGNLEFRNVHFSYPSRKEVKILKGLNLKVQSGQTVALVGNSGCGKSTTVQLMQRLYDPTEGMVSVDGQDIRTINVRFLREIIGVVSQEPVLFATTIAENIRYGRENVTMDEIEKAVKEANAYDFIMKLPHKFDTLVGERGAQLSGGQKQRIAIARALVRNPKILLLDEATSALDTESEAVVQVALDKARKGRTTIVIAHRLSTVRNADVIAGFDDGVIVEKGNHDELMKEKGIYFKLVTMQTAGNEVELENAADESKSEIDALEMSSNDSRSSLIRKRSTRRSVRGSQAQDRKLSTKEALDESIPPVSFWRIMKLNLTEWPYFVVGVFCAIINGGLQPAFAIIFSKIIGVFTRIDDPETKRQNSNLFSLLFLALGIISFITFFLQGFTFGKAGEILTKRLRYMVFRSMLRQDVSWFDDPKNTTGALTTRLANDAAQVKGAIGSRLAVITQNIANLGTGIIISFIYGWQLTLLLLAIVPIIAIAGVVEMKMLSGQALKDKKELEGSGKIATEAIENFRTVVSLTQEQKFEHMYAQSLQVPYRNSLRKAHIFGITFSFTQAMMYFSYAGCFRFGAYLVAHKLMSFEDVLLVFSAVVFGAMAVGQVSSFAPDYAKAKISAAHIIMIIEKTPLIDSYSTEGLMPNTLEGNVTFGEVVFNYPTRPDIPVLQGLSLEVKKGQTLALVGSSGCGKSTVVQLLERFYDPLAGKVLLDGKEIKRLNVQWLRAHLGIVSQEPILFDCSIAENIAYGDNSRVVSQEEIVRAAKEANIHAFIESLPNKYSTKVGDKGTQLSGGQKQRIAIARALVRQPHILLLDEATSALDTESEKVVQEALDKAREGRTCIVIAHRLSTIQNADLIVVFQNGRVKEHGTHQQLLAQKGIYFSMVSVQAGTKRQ
# [12] = test system: C57BL/6J mice; assay: Liver weight and lipid levels in liver tissue after 10 weeks of test diet; format: in vivo
# Description: as §2, with “plasma. Lipids were extracted from the liver tissue according to Folch et al.'s method Folch J et al., J Biol Chem, 226: 497-509 (1957)). […] After adding 5 mL of chloroform:methanol solution (2:1, v/v) to the homogenate and mixing well, the mixture was centrifuged at 1000×g for 10 minutes. […] After adding 3 mL of chloroform:methanol:0.05% CaCl2 (3:48:47, v/v/v) solution to the remaining pellets and mixing well for 1 minute, followed by centrifugation at 1000×g for 10 minutes, the resulting pellets were completely dried with nitrogen gas. The dried lipids were dissolved in 1 mL of methanol and then analyzed. The commercially available kits (Bio Clinical System, Korea) were used to measure the levels of triglyceride, cholesterol and free fatty acids of the liver tissue.” for “plasma.”
# [13] = test system: P388 multidrug-resistant cells; conditions: cited from earlier work
# [14] = test system: UCP1; assay: RT-PCR of visceral fat tissues: UCP1; format: in vivo, mice; conditions: FIG. 6
# Description: as §1
# [15] = test system: IL-6; assay: RT-PCR of visceral fat tissues: IL-6; format: in vivo, mice; conditions: FIG. 5
# Description: as §1
# [16] = test system: human platelets; conditions: cited from earlier work
# [17] = 0.05% cinchonine in high-fat diet, 10 weeks
# [18] = 0.05% cinchonine in high-fat diet
structure (smiles),measurement,setting,value
"C=C[C@H]1C[N@@]2CC[C@H]1C[C@@H]2[C@@H](O)c1ccnc2ccccc12 [cinchonine, Cinchonine]",decrease of plasma ALT activity as compared to HFD,[1]; [17],58%
same,decrease of plasma AST activity as compared to HFD,[1]; [17],46%
same,lower plasma LDL+VLDL level as compared to HFD,[1]; [17],33%
same,lower plasma free fatty acid level as compared to HFD,[1]; [17],21%
same,lower plasma total cholesterol level as compared to HFD,[1]; [17],30%
same,lower plasma triglyceride level as compared to HFD,[1]; [17],24%
same,reduction of fasting blood sugar level as compared to HFD,[1]; [17],27%
same,lower plasma HDL cholesterol level as compared to HFD,[1]; group fed with the present composition vs high fat diet group,25%
same,ALT,"[1]; plasma, CSID group, 10 weeks",5.94 ± 0.78^c IU/L
same,AST,"[1]; plasma, CSID group, 10 weeks",6.03 ± 0.28^b IU/L
same,Free fatty acid,"[1]; plasma, CSID group, 10 weeks",685 ± 65.6^b uEq/L
same,HDL cholesterol,"[1]; plasma, CSID group, 10 weeks",0.89 ± 0.04^b mmol/L
same,Total cholesterol,"[1]; plasma, CSID group, 10 weeks",4.57 ± 0.26^b mmol/L
same,Triglyceride,"[1]; plasma, CSID group, 10 weeks",0.68 ± 0.05^b mmol/L
same,LDL + VLDL cholesterol,"[1]; plasma, CSID group, 10 weeks, total cholesterol minus HDL",3.68 ± 0.27^b mmol/L
same,Glucose,"[1]; plasma, fasting, CSID group, 10 weeks",6.51 ± 0.62^b mmol/L
same,HFD-induced elevation in expression of TNF-α,[2],significantly reversed
same,C/EBPα gene expression (mRNA),[3],significantly reduced expressions
same,antihypertensive effects by blocking adrenorceptor and Ca^2+ channels,[4],antihypertensive effects
same,in vitro anti-malaria effects,[5],in vitro anti-malaria effects
same,decrease in cumulative body weight gain as compared to HFD,[6],39%
same,decrease in final body weight as compared to HFD,[6],20%
same,reduction of epididymal fat-pad weight as compared to HFD,[6],19%
same,reduction of mesenteric fat-pad weight as compared to HFD,[6],43%
same,reduction of perirenal fat-pad weight as compared to HFD,[6],45%
same,reduction of retroperitoneal fat-pad weight as compared to HFD,[6],15%
same,reduction of total visceral fat weight as compared to HFD,[6]; p<0.001,26%
same,aP2 gene expression (mRNA),[7],significantly reduced expressions
same,differentiation of 3T3-L1 adipocyte precursor cells,[8],significantly decreases differentiation
same,differentiation of 3T3-L1 adipocyte precursor cells,[8]; listed as (+)-cinchonine,decreased differentiation
same,content of intracellular fats stained with Oil-red O (O.D. at 600 nm),[8],decreased in a dose-dependent manner
same,content of intracellular fats stained with Oil-red O (O.D. at 600 nm),[8]; listed as (+)-cinchonine,decreased
same,PPARγ2 gene expression (mRNA),[9],significantly reduced expressions
same,HFD-induced decrease in expression of UCP3,[10],significantly reversed
same,multi-drug resistance of cancer cells through P-glycoprotein binding,[11],improve multi-drug resistance
same,decrease of cholesterol level in liver tissue as compared to HFD,[12]; [18],16%
same,decrease of free fatty acid level in liver tissue as compared to HFD,[12]; [18],23%
same,decrease of triglyceride level in liver tissue as compared to HFD,[12]; [18],16%
same,reduction of absolute weight of liver as compared to HFD,[12]; [18],36%
same,reduction of ratio of liver weight to body weight as compared to HFD,[12]; [18],25%
same,Liver weight,[12]; CSID group,1.4 ± 0.14^b g
same,Liver weight (g/100 g body wt),[12]; CSID group,4.0 ± 0.12^b g/100 g body wt
same,Cholesterol,"[12]; liver tissue, CSID group",109.9 ± 2.37^b μmol/g
same,Free fatty acid,"[12]; liver tissue, CSID group",38.6 ± 3.52^b μEq/g
same,Triglyceride,"[12]; liver tissue, CSID group",59.7 ± 2.26^b μmol/g
same,apoptosis by suppressing transportation of drugs from P388 multidrug-resistant cells,[13],induce apoptosis
same,HFD-induced decrease in expression of UCP1,[14],significantly reversed
same,HFD-induced elevation in expression of IL-6,[15],significantly reversed
same,"platelet aggregation, blocking Ca^2+ influx into human platelets",[16],inhibits platelet aggregation
